Reference: ChEMBL document CHEMBL1130724, “Synthesis and biological activity of [Tic5] didemnin B” (Bioorg Med Chem Lett, 1998)

Organism: Oryctolagus cuniculus
Test: Compound was tested for inhibitory effect on protein biosynthesis in rabbit reticulocyte lysates
Assay type: functional

| SMILES | IC50 [µM] |
| --- | --- |
| CC[C@H](C)[C@H]1NC(=O)[C@@H](NC(=O)[C@@H](CC(C)C)N(C)C(=O)C2CCCN2C(=O)[C@H](C)O)[C@@H](C)OC(=O)[C@@H]2Cc3ccccc3CN2C(=O)[C@@H]2CCCN2C(=O)[C@H](CC(C)C)NC(=O)[C@@H](C)C(=O)[C@H](C(C)C)OC(=O)C[C@@H]1O (some centres not stated) | 2.68 |
| CC[C@H](C)[C@H]1NC(=O)[C@@H](NC(=O)[C@@H](CC(C)C)N(C)C(=O)C2CCCN2C(=O)[C@H](C)O)[C@@H](C)OC(=O)[C@H](CC(C)C)N(C)C(=O)[C@@H]2CCCN2C(=O)[C@H](CC(C)C)NC(=O)[C@@H](C)C(=O)[C@H](C(C)C)OC(=O)C[C@@H]1O (some centres not stated) [[N-ME LEU5] DIDEMNIN B] | 9 |
